# Target: T1, Human Factor XIIa (hFXIIa) (Homo sapiens, UniProt P00748)
# T1 construct: purchased Enzyme Research Laboratories
# T1 sequence (P00748 373-615 limits assumed): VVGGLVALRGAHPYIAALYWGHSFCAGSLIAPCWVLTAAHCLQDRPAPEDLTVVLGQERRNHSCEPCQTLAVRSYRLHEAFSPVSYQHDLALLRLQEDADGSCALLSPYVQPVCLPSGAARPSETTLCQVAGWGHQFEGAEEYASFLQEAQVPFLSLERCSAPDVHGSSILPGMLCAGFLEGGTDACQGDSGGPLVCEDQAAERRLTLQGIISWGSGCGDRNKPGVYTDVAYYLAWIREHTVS
# T1 sequence (P00748 20-372 partner limits assumed): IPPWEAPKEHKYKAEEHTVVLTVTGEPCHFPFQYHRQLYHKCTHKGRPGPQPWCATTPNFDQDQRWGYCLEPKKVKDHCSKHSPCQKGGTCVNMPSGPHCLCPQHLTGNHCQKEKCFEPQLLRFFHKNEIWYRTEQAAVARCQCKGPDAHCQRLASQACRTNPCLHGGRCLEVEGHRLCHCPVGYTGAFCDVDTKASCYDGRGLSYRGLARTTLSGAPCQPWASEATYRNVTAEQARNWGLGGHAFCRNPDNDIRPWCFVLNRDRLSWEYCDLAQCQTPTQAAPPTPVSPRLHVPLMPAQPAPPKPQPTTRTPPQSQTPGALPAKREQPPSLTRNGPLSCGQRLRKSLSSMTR
# Experiment: Determination of Human Factor XIIa (hFXIIa) inhibition, fluorogenic substrate IC50 assay
# Type: biochemical
# Settings: fluorogenic substrate H-DPro-Phe-Arg-AFC at Km, 25° C., read-out: Human FXIIa IC50
# Method: Determination of Human Factor XIIa (hFXIIa) inhibition
# The Km for the cleavage of the substrate by hFXIIa was determined by standard transformation of the Michaelis-Menten equation, with subsequent inhibition assays performed at substrate Km concentration.
row,SMILES,IC50 [nM]
1,"CN1C(=O)CCCc2ccc(N3CCc4c(C(=O)NCC5CC5)nn(-c5cccc(Cl)c5)c4C3=O)cc21 [Example 1242, 1-(3-chlorophenyl)-N-(cyclopropylmethyl)-6-(1-methyl-2-oxo-2,3,4,5-tetrahydro-1H-benzo[b]azepin-8-yl)-7-oxo-4,5,6,7-tetrahydro-1H-pyrazolo[3,4-c]pyridine-3-carboxamide]",3000 to 10000
2,"CN1CCc2ncc(N3CCc4c(C(=O)NCC5CC5)nn(-c5cccc(Cl)c5)c4C3=O)cc2C1 [Example 1040, 1-(3-Chlorophenyl)-N-(cyclopropylmethyl)-6-(6-methyl-5,6,7,8-tetrahydro-1,6-naphthyridin-3-yl)-7-oxo-4,5,6,7-tetrahydro-1H-pyrazolo[3,4-c]pyridine-3-carboxamide]",1000 to 3000
3,"N#CCN1CCc2ccc(N3CCc4c(C(=O)NCC5CC5)nn(-c5cccc(Cl)c5)c4C3=O)cc2C1 [Example 1100, 1-(3-chlorophenyl)-6-(2-(cyanomethyl)-1,2,3,4-tetrahydroisoquinolin-7-yl)-N-(cyclopropylmethyl)-7-oxo-4,5,6,7-tetrahydro-1H-pyrazolo[3,4-c]pyridine-3-carboxamide]",1000 to 3000
4,"CCOC(=O)c1nn(-c2cccc(Cl)c2)c2c1CCN(c1ccc(OC)c(C(=O)N(C)C)c1)C2=O [Example 1324, ethyl 1-(3-chlorophenyl)-6-(3-(dimethylcarbamoyl)-4-methoxyphenyl)-7-oxo-4,5,6,7-tetrahydro-1H-pyrazolo[3,4-c]pyridine-3-carboxylate]",1000 to 3000
5,"CN1C(=O)C(C)(C)c2ccc(N3CCc4c(C(=O)NCC5CC5)nn(-c5cccc(Cl)c5)c4C3=O)cc21 [Example 1277, 1-(3-chlorophenyl)-N-(cyclopropylmethyl)-7-oxo-6-(1,3,3-trimethyl-2-oxoindolin-6-yl)-4,5,6,7-tetrahydro-1H-pyrazolo[3,4-c]pyridine-3-carboxamide]",10000 to 40000
6,"O=C(NCC1CC1)c1nn(-c2cccc(Cl)c2)c2c1CCN(c1ccc3c(c1)CN(CC1CCCC1)CC3)C2=O [Example 1102, 1-(3-chlorophenyl)-6-(2-(cyclopentylmethyl)-1,2,3,4-tetrahydroisoquinolin-7-yl)-N-(cyclopropylmethyl)-7-oxo-4,5,6,7-tetrahydro-1H-pyrazolo[3,4-c]pyridine-3-carboxamide]",300 to 1000
7,"CN(C)C(=O)c1cnnc(N2CCc3c(C(=O)NCC4CC4)nn(-c4cccc(Cl)c4)c3C2=O)c1 [Example 1298, 1-(3-chlorophenyl)-N-(cyclopropylmethyl)-6-(5-(dimethylcarbamoyl)pyridazin-3-yl)-7-oxo-4,5,6,7-tetrahydro-1H-pyrazolo[3,4-c]pyridine-3-carboxamide]",3000 to 10000
8,"CN1CCc2ccc(N3CCc4c(C(=O)NCC5CC5)nn(-c5cccc(Cl)c5)c4C3=O)nc2C1 [Example 1034, 1-(3-Chlorophenyl)-N-(cyclopropylmethyl)-6-(7-methyl-5,6,7,8-tetrahydro-1,7-naphthyridin-2-yl)-7-oxo-4,5,6,7-tetrahydro-1H-pyrazolo[3,4-c]pyridine-3-carboxamide]",300 to 1000
9,"Cc1ccncc1CNC(=O)c1nn(-c2cccc(Cl)c2)c2c1CCN(c1ccc3c(c1)C(=O)NCC3)C2=O [Example 1240, 1-(3-chlorophenyl)-N-((4-methylpyridin-3-yl)methyl)-7-oxo-6-(1-oxo-1,2,3,4-tetrahydroisoquinolin-7-yl)-4,5,6,7-tetrahydro-1H-pyrazolo[3,4-c]pyridine-3-carboxamide]",300 to 1000
10,"COC1CN(CCO)Cc2cc(N3CCc4c(C(=O)NCC5CC5)nn(-c5cccc(Cl)c5)c4C3=O)ccc21 (centres unmarked) [Example 1191, 1-(3-chlorophenyl)-N-(cyclopropylmethyl)-6-(2-(2-hydroxyethyl)-4-methoxy-1,2,3,4-tetrahydroisoquinolin-7-yl)-7-oxo-4,5,6,7-tetrahydro-1H-pyrazolo[3,4-c]pyridine-3-carboxamide]",300 to 1000
11,"CN1CCc2ccc(N3CCc4c(C(=O)NC[C@H]5COCCO5)nn(-c5cccc(Cl)c5)c4C3=O)cc2C1=O [Example 1246, (S)-N-((1,4-dioxan-2-yl)methyl)-1-(3-chlorophenyl)-6-(2-methyl-1-oxo-1,2,3,4-tetrahydroisoquinolin-7-yl)-7-oxo-4,5,6,7-tetrahydro-1H-pyrazolo[3,4-c]pyridine-3-carboxamide]",300 to 1000
12,"CC1CCCN1Cc1cccc(N2CCc3c(C(=O)NCc4ccccc4)nn(-c4cccc(Cl)c4)c3C2=O)c1 (centres unmarked) [Example 1039, N-benzyl-1-(3-chlorophenyl)-6-(3-((2-methylpyrrolidin-1-yl)methyl)phenyl)-7-oxo-4,5,6,7-tetrahydro-1H-pyrazolo[3,4-c]pyridine-3-carboxamide]",300 to 1000

# Continued, values first:
row,IC50 [nM],SMILES
1,100 to 300,"CCN1CCc2c(COC)cc(N3CCc4c(C(=O)NCC5CC5)nn(-c5cccc(Cl)c5)c4C3=O)cc2C1 [Example 1169, 1-(3-Chlorophenyl)-N-(cyclopropylmethyl)-6-(2-ethyl-5-(methoxymethyl)-1,2,3,4-tetrahydroisoquinolin-7-yl)-7-oxo-4,5,6,7-tetrahydro-1H-pyrazolo[3,4-c]pyridine-3-carboxamide]"
2,100 to 300,"CCN1CCc2ccc(N3CCc4c(C(=O)N[C@H]5CCOC5)nn(-c5cccc(Cl)c5)c4C3=O)cc2C1 [Example 1090, (S)-1-(3-chlorophenyl)-6-(2-ethyl-1,2,3,4-tetrahydroisoquinolin-7-yl)-7-oxo-N-(tetrahydrofuran-3-yl)-4,5,6,7-tetrahydro-1H-pyrazolo[3,4-c]pyridine-3-carboxamide]"
3,300 to 1000,"CN1CCc2ccc(N3CCc4c(C(=O)NC5COC5)nn(-c5cccc(Cl)c5)c4C3=O)cc2C1 [Example 1041, 1-(3-chlorophenyl)-6-(2-methyl-1,2,3,4-tetrahydroisoquinolin-7-yl)-N-(oxetan-3-yl)-7-oxo-4,5,6,7-tetrahydro-1H-pyrazolo[3,4-c]pyridine-3-carboxamide]"
4,10 to 100,"Cc1cc(CNC(=O)c2nn(-c3cccc(Cl)c3)c3c2CCN(c2ccc4c(c2)CN(CCO)CC4)C3=O)ccn1 [Example 1171, 1-(3-chlorophenyl)-6-(2-(2-hydroxyethyl)-1,2,3,4-tetrahydroisoquinolin-7-yl)-N-((2-methylpyridin-4-yl)methyl)-7-oxo-4,5,6,7-tetrahydro-1H-pyrazolo[3,4-c]pyridine-3-carboxamide]"
5,100 to 300,"O=C(NCc1ccoc1)c1nn(-c2cccc(Cl)c2)c2c1CCN(c1ccc3c(c1)CN(CCO)CC3)C2=O [Example 1105, 1-(3-chlorophenyl)-N-(furan-3-ylmethyl)-6-(2-(2-hydroxyethyl)-1,2,3,4-tetrahydroisoquinolin-7-yl)-7-oxo-4,5,6,7-tetrahydro-1H-pyrazolo[3,4-c]pyridine-3-carboxamide]"
6,300 to 1000,"O=C(NCC1CC1)c1nn(-c2cccc(Cl)c2)c2c1CCN(c1ccc3c(c1)CN(C1CCCC1O)CC3)C2=O (centres unmarked) [Example 1119, 1-(3-chlorophenyl)-N-(cyclopropylmethyl)-6-(2-(2-hydroxycyclopentyl)-1,2,3,4-tetrahydroisoquinolin-7-yl)-7-oxo-4,5,6,7-tetrahydro-1H-pyrazolo[3,4-c]pyridine-3-carboxamide]"
7,300 to 1000,"O=C(NCC1CC1)c1nn(-c2cccc(Cl)c2)c2c1CCN(c1ccc3c(c1)C(=O)N(CC1CCCO1)CC3)C2=O (centres unmarked) [Example 1292, 1-(3-chlorophenyl)-N-(cyclopropylmethyl)-7-oxo-6-(1-oxo-2-((tetrahydrofuran-2-yl)methyl)-1,2,3,4-tetrahydroisoquinolin-7-yl)-4,5,6,7-tetrahydro-1H-pyrazolo[3,4-c]pyridine-3-carboxamide]"
8,300 to 1000,"C[C@@H](NC(=O)c1nn(-c2cccc(Cl)c2)c2c1CCN(c1ccc3c(c1)C(=O)N(C)CC3)C2=O)c1cccnc1 [Example 1214, (R)-1-(3-chlorophenyl)-6-(2-methyl-1-oxo-1,2,3,4-tetrahydroisoquinolin-7-yl)-7-oxo-N-(1-(pyridin-3-yl)ethyl)-4,5,6,7-tetrahydro-1H-pyrazolo[3,4-c]pyridine-3-carboxamide]"
9,100 to 300,"COCC(C)N1CCc2ccc(N3CCc4c(C(=O)NCC5CC5)nn(-c5cccc(Cl)c5)c4C3=O)cc2C1 (centres unmarked) [Example 1060, 1-(3-chlorophenyl)-N-(cyclopropylmethyl)-6-(2-(1-methoxypropan-2-yl)-1,2,3,4-tetrahydroisoquinolin-7-yl)-7-oxo-4,5,6,7-tetrahydro-1H-pyrazolo[3,4-c]pyridine-3-carboxamide]"
10,10 to 100,"Cc1cc(CNC(=O)c2nn(-c3cccc(Cl)c3)c3c2CCN(c2ccc4c(c2)CN(C)CC4)C3=O)[nH]n1 [Example 1065, 1-(3-chlorophenyl)-6-(2-methyl-1,2,3,4-tetrahydroisoquinolin-7-yl)-N-((3-methyl-1H-pyrazol-5-yl)methyl)-7-oxo-4,5,6,7-tetrahydro-1H-pyrazolo[3,4-c]pyridine-3-carboxamide]"
11,10 to 100,"O=C(NCc1ncccc1Cl)c1nn(-c2cccc(Cl)c2)c2c1CCN(c1ccc3c(c1)CN(CCO)CC3)C2=O [Example 1170, 1-(3-chlorophenyl)-N-((3-chloropyridin-2-yl)methyl)-6-(2-(2-hydroxyethyl)-1,2,3,4-tetrahydroisoquinolin-7-yl)-7-oxo-4,5,6,7-tetrahydro-1H-pyrazolo[3,4-c]pyridine-3-carboxamide]"
